What all share (experiment): inhibition of tumour cell growth, NCI panel, 48 h
Test [1] has as its system IGROV1 ovarian.
Test [2] has as its system A498 renal.
Test [3] relates to SW-620 colon.
Test [4] relates to OVCAR-3 ovarian.
Test [5] relates to ACHN renal.
The test system of test [6] is OVCAR-8 ovarian.
In test [7] the test system is OVCAR-4 ovarian.
Test [8] concerns COLO 205 colon.
The test system of test [9] is MOLT-4 leukemia.
The test system of test [10] is MDA-MB-231 breast.

Several values for one entry are separate records, joined by “and”; a condition that tells them apart may be missing. Equal entries are not always repeated.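 Test compounds were applied to cells in 96-well plates for 48 hours at 5 doses. GI50 is the concentration that inhibits growth by half. TGI: total growth inhibition.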

For the compound `C=C1C(=O)OC2CC3(C)OC3C3OC3C3=CC(OC3=O)C12` (centres undefined), the GI50 in [1] is 21200 nM; in [2], 15800 nM; in test [3] it was 1350 nM; in [4], 2030 nM; in test [5], 1810 nM; in test [6] it was 3320 nM. Moreover, the GI50 is 2140 nM in test [7], 539 nM in test [8], 3250 nM in test [9] and 8330 nM in [10]. The TGI in [1] is 40700 nM; in test [2], 30500 nM; in test [3], 3040 nM; in test [4], 3610 nM; in test [5], 3350 nM; in [6], 19300 nM. For the same compound, the TGI in [7] amounted to 4860 nM; in test [8] it was 1250 nM; in [9] it was 9750 nM; in [10], 22700 nM.
For `O=P1(O)c2ccccc2CS(=O)(=O)Cc2ccccc21`, the TGI in test [1], in [2], in [3], in test [4], in [5] and in test [6] was over 100000 nM in each case. In addition, the TGI in test [7], in [8], in [9] and in [10] was over 100000 nM each time.
With `Cc1cc2c(C(C)C)c(O)c(O)c(C=O)c2c(O)c1-c1c(C)cc2c(C(C)C)c(O)c(O)c(C=O)c2c1O` (tested in a mixture with another compound), the GI50 was 979 nM in [1]; 1290 nM in test [2]; 806 nM in test [3]; 1030 nM in [4]; 545 nM in [5]; 1180 nM in test [6]. Besides, the GI50 in test [7] was 1450 nM; in test [8], 1360 nM; in test [9], 748 nM; in test [10] it was 2110 nM. Further, the TGI in test [1] came out at 12700 nM; in [2], 2920 nM; in [3], 2330 nM; in [4] it was 2690 nM; in test [5], 2210 nM; in test [6], 3490 nM. For the same compound, the TGI in test [7] was found to be 9990 nM; in test [8] it was 2870 nM; in test [9] it was 13600 nM; in [10], 5800 nM.
Turning to `CC[C@@]1(OC(=O)CN)C(=O)OCc2c1cc1n(c2=O)Cc2cc3c(N)c4c(cc3nc2-1)OCO4`, the GI50 is 18 nM in test [1]; 2.26 nM in [2]; 2.43 nM in test [3]; 35.2 nM and 11.6 nM in [4]; under 0.1 nM in [5]; 0.109 nM in [6]. Moreover, the GI50 in test [7] is 50.7 nM and 38.6 nM; in [8], 41.9 nM and 110 nM; in test [9] it was under 0.1 nM; in test [10], 87.3 nM and 300 nM. Also, the TGI is 342 nM in test [1]; 66.1 nM in test [2]; over 100000 nM in test [3]; 481 nM and 336 nM in test [4]; 104 nM and 15.2 nM in test [5]; 107 nM and 12.8 nM in test [6]. The TGI was 356 nM and 658 nM in test [7]; 961 nM in test [8]; 146 nM in test [9]; over 100000 nM in [10].
For the compound `Cc1cccnc1CNC1CC(NCc2ncccc2C)CC(NCc2ncccc2C)C1` (centres undefined), the GI50 in [1] is 3890 nM; in [2] it was 1780 nM; in [3] it was 2040 nM; in test [4], 3100 nM; in test [5], 3220 nM; in test [6], 2200 nM. For the same compound, the GI50 was 2880 nM in test [7], 2030 nM in test [8], 2720 nM in test [9] and 1600 nM in [10]. Also, the TGI in test [1] came out at 40300 nM; in test [2], 3300 nM; in test [3] it was 5800 nM; in test [4], 8940 nM; in test [5], 11200 nM; in [6] it was 4870 nM. The TGI in test [7] was 11900 nM; in test [8], 4250 nM; in test [9], 5380 nM; in [10], 3560 nM.
For `O=C(NO)c1cnc(N2CCN(S(=O)(=O)c3ccc4ccccc4c3)CC2)nc1`, the GI50 is 162 nM in test [1]; 28.3 nM in [2]; 34.9 nM in [3]; 95.5 nM in test [4]; 72.3 nM in test [5]; 27.6 nM in test [6]. Further, the GI50 in test [7] is 81 nM; in [8] it was 56.4 nM; in test [9], 42.4 nM; in [10], 199 nM. Moreover, the TGI in [1] was 780 nM; in test [2] it was 220 nM; in [4], 386 nM; in [5] it was 595 nM; in [6], 1920 nM; in [7] it was 23600 nM. The TGI was 294 nM in test [8], over 41300 nM in test [9] and 5280 nM in [10].
As to `ClC1=C(Cl)C(Cl)=C(Cl)C1=Cc1ccc(Cl)cc1`, the GI50 is 396 nM in [1]; 1600 nM in test [2]; 241 nM in [3]; 309 nM in test [4]; 327 nM in [5]; 360 nM in test [6]. Besides, the GI50 was 818 nM in [7], 406 nM in test [8], 356 nM in [9] and 302 nM in [10]. In addition, the TGI stood at 2110 nM in test [1]; 3170 nM in test [2]; 680 nM in test [3]; 853 nM in test [4]; 1070 nM in test [5]; 2270 nM in [6]. The TGI in test [7] is 2340 nM; in [8], 1520 nM; in test [9], 2960 nM; in test [10], 1080 nM.

These data come from PubChem BioAssay (NCI).
